In PubChem BioAssay (NCI):
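Results reflect a 48-hour exposure of cells in 96-well plates to compound at five concentrations. GI50 is the concentration that inhibits growth by half. TGI denotes the concentration required for complete inhibition of growth.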 Where a SMILES comes first, the peptide text is derived from it.

Key:
Assay in all cases: DTP human tumour cell line panel, 48 h
[1] = tested on: SF-539 CNS
[2] = tested on: RPMI-8226 leukemia
[3] = tested on: PC-3 prostate
[4] = tested on: HOP-62 NSCLC
[5] = tested on: A498 renal
[6] = tested on: OVCAR-8 ovarian
[7] = tested on: RXF 393 renal
[8] = tested on: M14 melanoma
[9] = tested on: HOP-92 NSCLC
[10] = tested on: OVCAR-3 ovarian
[11] = tested on: 786-0 renal
[12] = tested on: OVCAR-4 ovarian
[13] = tested on: NCI-H226 lung
[14] = tested on: K-562 leukemia
[15] = tested on: SN12C renal
[16] = tested on: LOX IMVI melanoma
[17] = tested on: HCC-2998 colon
[18] = tested on: HL-60(TB) leukemia
[19] = tested on: SK-MEL-5 melanoma
[20] = tested on: NCI/ADR-RES ovarian
[21] = tested on: NCI-H522 lung
[22] = tested on: KM12 colon
[23] = tested on: COLO 205 colon
[24] = tested on: BT-549 breast
[25] = tested on: SNB-19 CNS
[26] = tested on: HT29 colon
[27] = tested on: SK-MEL-2 melanoma
[28] = tested on: CCRF-CEM leukemia
[29] = tested on: T-47D breast
[30] = tested on: ACHN renal
[31] = tested on: IGROV1 ovarian
[32] = tested on: NCI-H460 lung
[33] = tested on: MCF7 breast
[34] = tested on: SF-295 CNS
[35] = tested on: HCT-116 colon
[36] = tested on: HCT-15 colon
[37] = tested on: MOLT-4 leukemia
[38] = tested on: A549 NSCLC
[39] = tested on: UACC-62 melanoma
[40] = tested on: SR leukemia
[41] = tested on: OVCAR-5 ovarian
[42] = tested on: SF-268 CNS
[43] = tested on: TK-10 renal
[44] = tested on: EKVX NSCLC
[45] = tested on: CAKI-1 renal
[46] = tested on: UO-31 renal
[47] = tested on: NCI-H23 lung
[48] = tested on: SK-OV-3 ovarian
[49] = tested on: MDA-MB-231 breast
[50] = tested on: MALME-3M melanoma
[51] = tested on: SW-620 colon
[52] = tested on: DU-145 prostate
[53] = tested on: U251 CNS
[54] = tested on: SNB-75 CNS
[55] = tested on: MDA-MB-435
[56] = tested on: SK-MEL-28 melanoma
[57] = tested on: UACC-257 melanoma
[58] = tested on: HS 578T breast

Which results are given for `CCC(C)C1NC(=O)C(CCCCN)NC(=O)C(CCCCN)NC(=O)C(CC(C)C)NC(=O)C(CCCCN)NC(=O)C(C(C)CC)NC(=O)C(C(C)C)NC(=O)C(C(C)CC)NC(=O)C(CCCCN)NC(=O)C(CCCCN)NC(=O)C(C)NC(=O)C(CCCCN)NC(=O)C(CC(C)C)NC1=O` (configuration not stated) (cyclo(AKKIVIKLKKILK); configuration not given here)?
GI50 [1]: 2.05 µM; TGI [1]: 4.38 µM; GI50 [2]: 1.11 µM; TGI [2]: 3.74 µM; GI50 [3]: 0.779 µM; TGI [3]: 8.52 µM; GI50 [4]: 1.76 µM; TGI [4]: 3.97 µM; GI50 [5]: 1.66 µM; TGI [5]: 3.84 µM; GI50 [6]: 1.73 µM; TGI [6]: 6.4 µM; GI50 [7]: 1.49 µM; TGI [7]: 3.01 µM; GI50 [8]: 1.6 µM; TGI [8]: 3.46 µM; GI50 [9]: 1.27 µM; TGI [9]: 3.24 µM; GI50 [10]: 1.62 µM; TGI [10]: 3.63 µM; GI50 [11]: 1.8 µM; TGI [11]: 3.64 µM; GI50 [12]: 1.28 µM; TGI [12]: 13.4 µM; GI50 [13]: 1.21 µM; TGI [13]: 3.37 µM; GI50 [14]: 1.31 µM; TGI [14]: 5.47 µM; GI50 [15]: 1.94 µM; TGI [15]: 6.46 µM; GI50 [16]: 1.73 µM; TGI [16]: 3.2 µM; GI50 [17]: 2.65 µM; TGI [17]: 8.52 µM; GI50 [18]: 2.42 µM; TGI [18]: 6.93 µM; GI50 [19]: 1.01 µM; TGI [19]: 2.19 µM; GI50 [20]: 1.07 µM; TGI [20]: 5.61 µM; GI50 [21]: 1.74 µM; TGI [21]: 4.7 µM; GI50 [22]: 2.55 µM; TGI [22]: 8.09 µM; GI50 [23]: 1.74 µM; TGI [23]: 3.65 µM; GI50 [24]: 1.79 µM; TGI [24]: 3.96 µM; GI50 [25]: 2.93 µM; TGI [25]: 14 µM; GI50 [26]: 2.93 µM; TGI [26]: 10.8 µM; GI50 [27]: 2.06 µM; TGI [27]: 4.88 µM; GI50 [28]: 2.15 µM; TGI [28]: 9.3 µM; GI50 [29]: 1.69 µM; TGI [29]: 6.7 µM; GI50 [30]: 2.36 µM; TGI [30]: 6.84 µM; GI50 [31]: 1.97 µM; TGI [31]: 6.18 µM; GI50 [32]: 1.85 µM; TGI [32]: 4.28 µM; GI50 [33]: 1.87 µM; TGI [33]: 5.98 µM; GI50 [34]: 1.14 µM; TGI [34]: 2.52 µM; GI50 [35]: 1.46 µM; TGI [35]: 3.07 µM; GI50 [36]: 1.6 µM; TGI [36]: 3.27 µM; GI50 [37]: 1.7 µM; TGI [37]: 5.29 µM; GI50 [38]: 2.26 µM; TGI [38]: 9.64 µM; GI50 [39]: 1.27 µM; TGI [39]: 2.94 µM; GI50 [40]: 1.86 µM; TGI [40]: 5.02 µM; GI50 [41]: 2.33 µM; TGI [41]: 8.18 µM; GI50 [42]: 2.59 µM; TGI [42]: 11.3 µM; GI50 [43]: 1.87 µM; TGI [43]: 4.63 µM; GI50 [44]: 1.33 µM; TGI [44]: 6 µM; GI50 [45]: 1.56 µM; TGI [45]: 3.76 µM; GI50 [46]: 1.38 µM; TGI [46]: 2.74 µM; GI50 [47]: 0.704 µM; TGI [47]: 4.45 µM; GI50 [48]: 2.09 µM; TGI [48]: 5.88 µM; GI50 [49]: 1.72 µM; TGI [49]: 4.25 µM; GI50 [50]: 1.45 µM; TGI [50]: 3.3 µM; GI50 [51]: 1.75 µM; TGI [51]: 3.59 µM; GI50 [52]: 2.99 µM; TGI [52]: 10.7 µM; GI50 [53]: 1.59 µM; TGI [53]: 3.25 µM; GI50 [54]: 1.72 µM; TGI [54]: 4.35 µM; GI50 [55]: 1.77 µM; TGI [55]: 3.8 µM; GI50 [56]: 1.97 µM; TGI [56]: 4.61 µM; GI50 [57]: 2.42 µM; TGI [57]: 7.57 µM; GI50 [58]: 2 µM; TGI [58]: 5.66 µM

Which results are given for `C=C(C)[C@@H]1CC[C@]2(C(N)=O)CC[C@]3(C)[C@H](CC[C@@H]4[C@@]5(C)C/C(=C/c6cccnc6)C(=O)C(C)(C)[C@@H]5CC[C@]43C)[C@@H]12`?
GI50 [1]: 10.9 µM; TGI [1]: 33.3 µM; GI50 [2]: 2.44 µM; TGI [2]: 22.1 µM; GI50 [3]: 2.36 µM; TGI [3]: 25.6 µM; GI50 [4]: 12.4 µM; TGI [4]: > 100 µM; GI50 [5]: 23.8 µM; TGI [5]: > 100 µM; GI50 [6]: 9.96 µM; TGI [6]: > 100 µM; GI50 [7]: 3.41 µM; TGI [7]: 16.4 µM; GI50 [8]: 8.05 µM; TGI [8]: > 100 µM; GI50 [9]: 3.21 µM; TGI [9]: > 100 µM; GI50 [10]: 5.91 µM; TGI [10]: 43.8 µM; GI50 [11]: 14.7 µM; TGI [11]: > 100 µM; GI50 [12]: 4.28 µM; TGI [12]: > 100 µM; GI50 [13]: 6.9 µM; TGI [13]: 60.7 µM; GI50 [14]: 3.75 µM; TGI [14]: > 100 µM; GI50 [15]: 5.88 µM; TGI [15]: > 100 µM; GI50 [16]: 5.89 µM; TGI [16]: 18.6 µM; GI50 [17]: 9.04 µM; TGI [17]: > 100 µM; GI50 [18]: 3.15 µM; TGI [18]: 13.9 µM; GI50 [19]: 5.42 µM; TGI [19]: 17.6 µM; GI50 [20]: 7.13 µM; TGI [20]: > 100 µM; GI50 [21]: 6.77 µM; TGI [21]: 63 µM; GI50 [22]: 4.67 µM; TGI [22]: 64.1 µM; GI50 [23]: 7.14 µM; TGI [23]: 27.6 µM; GI50 [24]: 8.89 µM; TGI [24]: > 100 µM; GI50 [25]: 9.22 µM; TGI [25]: > 100 µM; GI50 [26]: 6.03 µM; TGI [26]: 52.7 µM; GI50 [27]: 12.1 µM; TGI [27]: 39.8 µM; GI50 [28]: 4.48 µM; TGI [28]: > 100 µM; GI50 [29]: 3.99 µM; TGI [29]: > 100 µM; GI50 [30]: 4.96 µM; TGI [30]: > 100 µM; GI50 [31]: 14 µM; TGI [31]: > 100 µM; GI50 [32]: 8.32 µM; TGI [32]: 25.1 µM; GI50 [33]: 3.49 µM; TGI [33]: > 100 µM; GI50 [34]: 3.84 µM; TGI [34]: 42.3 µM; GI50 [35]: 3.96 µM; TGI [35]: 66.4 µM; GI50 [36]: 4.4 µM; TGI [36]: > 100 µM; GI50 [37]: 3.14 µM; TGI [37]: > 100 µM; GI50 [38]: 3.84 µM; TGI [38]: > 100 µM; GI50 [39]: 5.97 µM; TGI [39]: 29.9 µM; GI50 [40]: 5.1 µM; TGI [40]: > 100 µM; GI50 [41]: 12.7 µM; TGI [41]: 39.7 µM; GI50 [42]: 7.52 µM; TGI [42]: > 100 µM; GI50 [43]: 24.7 µM; TGI [43]: > 100 µM; GI50 [44]: 4.99 µM; TGI [44]: 67 µM; GI50 [45]: 2.56 µM; TGI [45]: 21.2 µM; GI50 [46]: 3.08 µM; TGI [46]: > 100 µM; GI50 [47]: 14.7 µM; TGI [47]: > 100 µM; GI50 [48]: 10.6 µM; TGI [48]: > 100 µM; GI50 [49]: 15.2 µM; TGI [49]: > 100 µM; GI50 [50]: 7.54 µM; TGI [50]: 41.7 µM; GI50 [51]: 8.82 µM; TGI [51]: > 100 µM; GI50 [52]: 8.36 µM; TGI [52]: > 100 µM; GI50 [53]: 7.3 µM; TGI [53]: 47.2 µM; GI50 [54]: 8.63 µM; TGI [54]: > 100 µM; GI50 [55]: 5.52 µM; TGI [55]: > 100 µM; GI50 [56]: 8.81 µM; TGI [56]: 33.2 µM; GI50 [57]: 7.2 µM; TGI [57]: > 100 µM; GI50 [58]: 17.9 µM; TGI [58]: > 100 µM
